In patent US20050244413A1, “Compositions and methods for treating cancer using cytotoxic CD44 antibody immunoconjugates and chemotherapeutic agents” (priority 2002, published 2005):

Legend:
A431 tumors = assay: BIWI 1 monotherapy in A431 xenografted nude mice; assay type: in vivo, mouse; conditions: five consecutive days
Experimental: (§1) In vivo anti-tumor efficacy of BIWI 1 was tested in three nude mouse xenograft models applying antigen-positive human tumors: A431 (ATCC # CRL 1555; epidermoid carcinoma of the vulva), FaDu (ATCC # HTB 43; squamous cell carcinoma of the pharynx), and MDA-MB 453 (ATCC # HTB-131; breast carcinoma). The cells were received from ATCC and cultured in RPMI1640 medium containing 10% fetal calf serum and supplements. 1×10^6 tumors cells were transplanted subcutaneously into the right flank of 6 week old female NMRI-nu/nu mice. Tumor growth was monitored by measuring tumor size. A tumor response was rated as complete response when the tumor completely disappeared at any time after start of treatment. The response was rated as partial response when the tumor volume decreased after treatment but thereafter started regrowing. The tolerability of the treatment was monitored by measuring mouse weight during the observation period.
Mice were randomised into the following treatment groups (treatment/initial mean tumor volume/tumor volume range/number of mice): • Group 1: Control (PBS)/185±217 mm^3/19-424 mm^3/5 mice. • Group 2: BIWA 4 (21 mg/kg/d)/133±115 mm^3/42-302 mm^3/5 mice. • Group 3: BIWI 1 (2.1 mg/kg/d)/107±63 mm^3/42-205 mm^3′/5 mice. • Group 4: BIWI 1 (7 mg/kg/d)/132±73 mm^3/42-205 mm^3/5 mice. • Group 5: BIWI 1 (21 mg/kg/d)/107±[…]/42-205 mm^3/5 mice.
(§2) Groups of 5 mice were treated with 2.1 mg/kg/d BIWI 1, 7 mg/kg/d BIWI 1, 21 mg/kg/d BIWI 1, and 21 mg/kg/d control antibody, respectively. Treatment consisted of i.v. injections of BIWI 1 given on five consecutive days, starting at day 1.

FaDu tumors = assay: BIWI 1 monotherapy in FaDu xenografted nude mice; assay type: in vivo, mouse; conditions: five consecutive days
Experimental: as §1
Mice were randomised into the following treatment groups (treatment/initial mean tumor volume/tumor volume range/number of mice): • Group 1: Control (PBS)/142±82 mm^3/34-268 mm^3 /8 mice. • Group 2: BIWA 4 (21 mg/kg/d)/134±86 mm^3/42-268 mm^3/6 mice. • Group 3: BIWI 1 (2.1 mg/kg/d) 149±96 mm^3/50-268 mm^3/6 mice. • Group 4: BIWI 1 (7 mg/kg/d)/132±97 mm^3 42-268 mm^3/6 mice. • Group 5: BIWI 1 (21 mg/kg/d)/129±74 mm^3/50-231 mm^3/6 mice.
as §2, with “6” for “5”, “1. […] The remaining 2 tumors grew similar to untreated control tumors.” for “1.”

mouse CD44v6 = assay: Cross-reactivity with mouse CD44v6; assay type: binding
[1] = 7 mg/kg/d or 21 mg/kg/d BIWI 1 i.v.

For BIWI 1, the “tumors with partial response” value (A431 tumors; 2.1 mg/kg/d BIWI 1 i.v., 5 mice) was 2, the complete responses (A431 tumors; 2.1 mg/kg/d BIWI 1 i.v., no regrowth until day 134) was 3/5 and the “day on which tumors disappeared” value (A431 tumors; [1]) was roughly 17 days. The “tumor regrowth until end of observation period (day 134)” value (A431 tumors; [1]) was “No tumor regrowth”, the tumor response (A431 tumors; [1]) was “all tumors responded completely” and the “tumor volume doubling time” value (FaDu tumors; 2.1 mg/kg/d BIWI 1 i.v.) was “approximately 5 days”. For the same substance, the complete responses (FaDu tumors; 7 mg/kg/d BIWI 1 i.v.) was 1/6, the partial responses (FaDu tumors; 7 mg/kg/d BIWI 1 i.v.) was 3/6 and the “day on which tumors disappeared” value (FaDu tumors; 21 mg/kg/d BIWI 1 i.v.) was roughly 24 days. The “tumor regrowth until end of observation period (day 107)” value (FaDu tumors; 21 mg/kg/d BIWI 1 i.v.) was “No tumor regrowth”, the tumor response (FaDu tumors; 21 mg/kg/d BIWI 1 i.v.) was “all tumors responded completely” and the “cross-reaction with mouse CD44v6” value (mouse CD44v6) was “does not cross-react”.
